The values that follow come from patent publication US3974187A, “Synthetic analogs having the activity of naturally occurring forms of coenzyme Q” (priority 1975, dated 1976).

Structures are written as SMILES.

For series [1], the system named is succinoxidase system of beef heart mitochondria. In words: CoQ activity: restoring succinoxidase activity of pentane-extracted beef heart mitochondria (manometric). In kind it is biochemical. Particulars: for Activation at 400 nMoles %: 400 nmoles of analog, relative to the response to 400 nmoles CoQ10; for Maximum Activation: 400 nm of analog per flask, percent of the response to CoQ4; for CoQ10 Act. Index: calculated from relative effectiveness, activity in terms of that of CoQ10; for Estimated nMoles Required for 50% Activation: level required to reinstate approximately 50% of maximum succinoxidase activity, 0.65-0.85 mg PEBHM; for Relative Effectiveness: molar amounts of analog and CoQ4 required to restore the same level of succinoxidase to PEBHM, relative to CoQ4. Also on record: key to CoQ10 Act. Index: activity index relative to CoQ10 standard. How it is done:
The CoQ activity of each analog was assessed by examining the ability of the analog to stimulate the succinoxidase activity of beef-heart mitochondria (BHM) from which the naturally occurring CoQ had been removed by pentane extraction. (Table I) Beef heart mitochondria were prepared by the method of Smith (Methods Enzymol., 10, 81 (1967). The pentane extraction was conducted as described by Szarkowska (Arch. Biochem. Biophys., 113, 519 (1966); PEBHM was frozen and used within 10 days of preparation, since pentane extraction decreases the stability of BHM. Succinoxidase activity was determined manometercally, using a Gilson differential respirometer (Iwamoto, Y., Hansen, I. L., Porter, T. H., and Folkers, K., Biochem. Biophys. Res. Comm., 58, 633 (1974), and is reported as […] of oxygen per minute per milligram of protein. A commercial soybean phospholipid preparation (Asolectin), dispersed by sonication (Fleischer, S. and Fleischer, B., Methods Enzymol., 10, 421 (1967), was used to provide phospholipid micelles, and test substances were added as solutions in ethanol. Within Table I are listed the CoQ activities of the analogs and selected reference compounds. The CoQ10 Activity Index is a measure of the effectiveness of the analogs, relative to the standard, in stimulating a submaximal response of succinoxidase activity. Specific activity of the succinoxidase system in response to stimulation by exogenous CoQ10 is given in footnote a of the Table. The quantity of analog to be added was chosen to provide a level of succinoxidase activity corresponding to the nearly linear portion of the activity: dose curve, in which succinoxidase activity stimulated is approximately proportional to the level of analog used. The second column lists the nanomolar quantity of analog required to provide a stimulation of about half of the maximum response. The relative response of the succinoxidase system to 400 nmol of each analog is listed in the third column of the Table. This level of analog is sufficient to insure significant excess over the stoichiometric amount, and maximum response to CoQ4 is obtained at one-tenth to one-twentieth of this dose level. The response to 400 nmol of CoQ10 is lower than is the response to other components listed. The very long side-chain of CoQ10, the natural coenzyme, may hinder the transport of exogenous CoQ10 to the active site.

For series [2] the following is noted: literature / general knowledge; cited from earlier work.
Series [3] relates to oxidative phosphorylation at site I (ETPH particles). In words: Assay of CoQ and analogs for oxidative phosphorylation at site I with ETPH particles. In kind it is biochemical. The note with it: CoQ or analog 0.12 nM (footnote 0.12 mM); for μmoles NADH /min/mg: 200 μg ETPH particles, no rotenone; for μmoles NADH min/mg +Rotenone / % Inhibition by Rotenone: rotenone 2 μM. Also noted: Δ NADH / Δ G6P: unit not given here. The method, then:
Assays were performed with 200 μg of ETPH particles as described by
Schatz and Racker (J. Biol. Chem., 241, 1429 (1966)). The concentration o
the CoQ compounds was 0.12 mM. Rotenone was added at 2 μM

In the next series the target is complex III (Bos taurus, UniProt P00157+P13272). In words: Reduction of cytochrome c by reduced CoQ and analogs catalyzed by complex III. It counts as biochemical. Particulars: for nMoles Cytochrome c Reduced/min / Non-enzymatic Rate of Cytochrome c Reduction: 10 μM reduced CoQ or analog; for nMoles Cytochrome c Reduced/min: 2 μg complex III, 8 μM cytochrome c; for Non-enzymatic Rate of Cytochrome c Reduction: blank without complex III; for % Inhibition by Antimycin A: antimycin A 1 μg/ml. How it is done:
Reduction of cytochrome c was measured at 550-540 nm. The reaction mixtur
contained in 1.0 ml: […] KP1, pH 7.5; 0.05 mM EDTA; 8 μM
cytochrome c1; 10 μM reduced CoQ or analog and 2 μg complex
III. When indicated, antimycin A was added to the assay medium at 1
μg/ml. An extinction coefficient of 19 mM^-^1 was used for […]

Take `CCCCCC=CCC=CCCCCCCCCCC1=C(C)C(=O)C(OC)=C(OC)C1=O` [10', 13'-Nonadecadienyl]: in series [1], the “Activation at 400 nMoles %” value is reported as 123%, the “Maximum Activation” value worked out at 96%, the “CoQ10 Act. Index” value is 7.3 and the “Estimated nMoles Required for 50% Activation” value was 5.7 nmol. Also, in series [1], the “Relative Effectiveness” value is on record as 35%.

Turning to `CCCCCCCCC=CCCCCCCCC1=C(C)C(=O)C(OC)=C(OC)C1=O` [8'-Heptadecenyl, 2,3-Dimethoxy-5-methyl-6-(8'-heptadecenyl)-1,4-benzoquinone], in series [1], the “Activation at 400 nMoles %” value stood at 121%, the “Maximum Activation” value was 94%, the “CoQ10 Act. Index” value is listed as 5.8 and the “Estimated nMoles Required for 50% Activation” value is 7.1 nmol. The “Relative Effectiveness” value in series [1] is 28%.

In the case of `COC1=C(OC)C(=O)C(C/C=C(\C)CC/C=C(\C)CC/C=C(\C)CC/C=C(\C)CC/C=C(\C)CC/C=C(\C)CCC=C(C)C)=C(C)C1=O` [CoQ7, reference compound], in series [1], the “Activation at 400 nMoles %” value was 115%, the “Maximum Activation” value amounted to 90%, the “CoQ10 Act. Index” value is 1.7 and the “Estimated nMoles Required for 50% Activation” value was 24.4 nmol. Moreover, in series [1], the “Relative Effectiveness” value is 8.2%.

For the molecule `CCCCCCCCCCCCCCCCCCCCC1=C(C)C(=O)C(OC)=C(OC)C1=O` [Eicosyl, 2,3-Dimethoxy-5-methyl-6-n-eicosyl-1,4-benzoquinone], in series [1], the “Activation at 400 nMoles %” value was 79%, the “Maximum Activation” value turned out to be 62%, the “CoQ10 Act. Index” value was 0.9 and the “Estimated nMoles Required for 50% Activation” value was 44.4 nmol. Further, the “Relative Effectiveness” value in series [1] turned out to be 4.5%. The “ability to elicit maximum activation of succinoxidase” value in series [1] (interpretation of Table II) is given as “cannot stimulate maximum activation”.

Consider `COC1=C(OC)C(=O)C(C/C=C(\C)CCC=C(C)C)=C(C)C1=O` [Q2, reference compound], for which, in series [2], the “chemical stability of isoprenoid quinones” value (shortened to “chemical stability”) is reported as “relative chemical instability”. Also, in series [3], the “P/NADH Ratio” value stood at 0.57, the “Δ G6P” value is listed as 0.045, the “Δ NADH” value is reported as 0.079 and the “μmoles NADH /min/mg” value is listed as 0.25 μmoles NADH /min/mg. Also, in series [3], the “μmoles NADH min/mg +Rotenone” value amounted to 0.02 μmoles NADH min/mg and the “% Inhibition by Rotenone” value came to 92%. Besides, on complex III, the “nMoles Cytochrome c Reduced/min” value stood at 27.4 nmol/min, the “Non-enzymatic Rate of Cytochrome c Reduction” value turned out to be 0.2 nmol/min and the “% Inhibition by Antimycin A” value is 98%.

Take `CCCCCCC=CCCCCCCCC1=C(C)C(=O)C(OC)=C(OC)C1=O` [8'-Pentadecenyl]: in series [1], the “Activation at 400 nMoles %” value is 119%, the “Maximum Activation” value was 93%, the “CoQ10 Act. Index” value is listed as 11.1 and the “Estimated nMoles Required for 50% Activation” value was 3.4 nmol. In addition, in series [1], the “Relative Effectiveness” value worked out at 58%.

Turning to `CC(C)=CCC/C(C)=C/CC/C(C)=C/CC1=CC(=O)C(C)=C(C)C1=O` [plastoquinone-3], the “chemical stability” value in series [2] is listed as “extremely unstable”.

As for `CCCCCC=CCC=CCC=CCC=CCCCC1=C(C)C(=O)C(OC)=C(OC)C1=O` [4', 7', 10', 13'-Nonadecatetraenyl, 2,3-Dimethoxy-5-methyl-6-(4',7',10',13'-nonadecatetraenyl)-1,4-benzoquinone], in series [1], the “Activation at 400 nMoles %” value is given as 118%, the “Maximum Activation” value amounted to 92%, the “CoQ10 Act. Index” value was 7.7 and the “Estimated nMoles Required for 50% Activation” value is 5.4 nmol. In addition, the “Relative Effectiveness” value in series [1] was 37%.

For `CCCCCCCCC=CCCCCCCCCCC1=C(C)C(=O)C(OC)=C(OC)C1=O` [10'-Nonadecenyl, 2,3-Dimethoxy-5-methyl-6-(10'-nonadecenyl)-1,4-benzoquinone], in series [1], the “Activation at 400 nMoles %” value was determined as 123%, the “Maximum Activation” value came out at 96%, the “CoQ10 Act. Index” value is 5.8 and the “Estimated nMoles Required for 50% Activation” value was 7.1 nmol. In addition, the “Relative Effectiveness” value in series [1] stood at 28%.

With `CCC=CCC=CCC=CCCCCCCCC1=C(C)C(=O)C(OC)=C(OC)C1=O` [8', 11', 14'-Heptadecatrienyl, 2,3 -Dimethoxy-5-methyl-6-(8',11',14'-heptadecatrienyl)-1,4-benzoquinone], in series [1], the “Activation at 400 nMoles %” value is given as 123%, the “Maximum Activation” value is recorded as 96%, the “CoQ10 Act. Index” value is given as 12.5 and the “Estimated nMoles Required for 50% Activation” value was 3.3 nmol. Further, the “Relative Effectiveness” value in series [1] is 60%.

For the molecule `COC1=C(OC)C(=O)C(C/C=C(\C)CC/C=C(\C)CC/C=C(\C)CCC=C(C)C)=C(C)C1=O` [CoQ4, reference compound], in series [1], the “amount giving full restoration of activity of succinoxidase in PEBHM” value is listed as “more than 20 nmoles”, the “Activation at 400 nMoles %” value is 128%, the “Maximum Activation” value amounted to 100% and the “CoQ10 Act. Index” value is on record as 20.8. In addition, in series [1], the “Estimated nMoles Required for 50% Activation” value is 2.0 nmol and the “Relative Effectiveness” value is listed as 100%. In addition, the “maximum activity of succinoxidase in PEBHM” value in series [1] (full restoration, more than 20 nmoles of CoQ4) worked out at 0.700 μatm O2 /mg protein min. Also, in series [1] (interpretation of Table II), the “ability to elicit maximum activation of succinoxidase” value is listed as “can elicit maximum activation” and the “effectiveness / utilization in the succinoxidase mitochondrial system” value is recorded as “effectively utilized”.

For the molecule `COC1=C(OC)C(=O)C(CC=C(C)C)=C(C)C1=O` [Q1, reference compound], the “chemical stability” value in series [2] is recorded as “relative chemical instability”. For the same molecule, in series [3], the “P/NADH Ratio” value was 0.522, the “Δ G6P” value was determined as 0.046, the “Δ NADH” value came out at 0.088 and the “μmoles NADH /min/mg” value turned out to be 0.45 μmoles NADH /min/mg. In series [3], the “μmoles NADH min/mg +Rotenone” value is 0.03 μmoles NADH min/mg and the “% Inhibition by Rotenone” value was 93%. Moreover, at complex III, the “nMoles Cytochrome c Reduced/min” value came to 12.4 nmol/min, the “Non-enzymatic Rate of Cytochrome c Reduction” value came to 0.6 nmol/min and the “% Inhibition by Antimycin A” value worked out at 100%.

On to `CCC=CCC=CCC=CCCCCCCCCCC1=C(C)C(=O)C(OC)=C(OC)C1=O` [10', 13', 16'-Nonadecatrienyl, 2,3-Dimethoxy-5-methyl-6-(10',13' ,16'-nonadecatrienyl)-1,4-benzoquinone], for which, in series [1], the “Activation at 400 nMoles %” value worked out at 128%, the “Maximum Activation” value stood at 100%, the “CoQ10 Act. Index” value is given as 10.2 and the “Estimated nMoles Required for 50% Activation” value is 4.1 nmol. The “Relative Effectiveness” value in series [1] is 49%.

For the molecule `CCCCCC=CCC=CCCCCCCCC1=C(C)C(=O)C(OC)=C(OC)C1=O` [8', 11'-Heptadecadienyl, 2,3-Dimethoxy-5-methyl-6-(8',11'-heptadecadienyl)-1,4-benzoquinone], in series [1], the “Activation at 400 nMoles %” value was determined as 122%, the “Maximum Activation” value worked out at 95%, the “CoQ10 Act. Index” value is 9.0 and the “Estimated nMoles Required for 50% Activation” value was 4.7 nmol. For the same molecule, in series [1], the “Relative Effectiveness” value was determined as 43%.
